Measured values taken from patent EP2209789B1, “C[…] INDOLOB[…] NS5B INHIBITORS” (Bristol-Myers Squibb Company, priority 2007, dated 2009).

Tests used:
HCV replicon = HCV replicon FRET / luciferase assay; type: cell-based
Procedure: FRET Assay Preparation. The HCV FRET screening assay was performed in 96-well cell culture plates. The FRET peptide (Anaspec, Inc.) (Taliani et al., Anal. Biochem. 1996, 240, 60-67) contains a fluorescence donor, EDANS, near one end of the peptide and an acceptor, DABCYL, near the other end. The fluorescence of the peptide is quenched by […] resonance energy transfer (RET) between the donor and the acceptor, but as the NS3 protease cleaves the peptide the products are released from RET quenching and the fluorescence of the donor becomes apparent. The assay reagent was made as follows: 5X cell Luciferase cell culture lysis reagent from Promega (#E153A) diluted to 1X with dH2O, NaCl added to 150 mM final, the FRET peptide diluted to 20 µM final from a 2 mM stock.
To prepare plates, HCV replicon cells, with or without a Renilla luciferase reporter gene, were trypsinized and plated in a 96-well plate with titrated test compounds added in columns 3 through 12; columns 1 and 2 contained a control compound (HCV control inhibitor), and the bottom row contained cells with DMSO only. The plates were then placed in a CO2 incubator at 37 °C.
Assays. Subsequent to addition of the test compounds described above (FRET Assay Preparation), at various times the plate was removed and Alamar blue solution (Trek Diagnostics, #00-100) was added to measure cellular toxicity. After reading in a Cytoflour 4000 instrument (PE Biosystems), plates were rinsed with PBS and then used for FRET assay by the addition of 30 ul of the FRET peptide assay reagent described above (FRET Assay Preparation) per well. The plate was then placed into the Cytoflour 4000 instrument which had been set to 340 excite/490 emission, automatic mode for up to 20 cycles and the plate read in a kinetic mode. Typically, the signal to noise using an endpoint analysis after the reads was at least three-fold. Alternatively, after Alamar blue reading, plates were rinsed with PBS, then used for luciferase assay using the Promega Dual-Glo Luciferase Assay System or the Promega EnduRen Live Cell Substrate assay.
Compound analysis was performed by quantification of the relative HCV replicon inhibition and the relative cytotoxicity values. To calculate cytoxicity values, the average Alamar Blue fluorescence signals from the control wells were set as 100% non-toxic. The individual signals in each of the compound test wells were then divided by the average control signal and multiplied by 100% to determine […]. To calculate the HCV replicon inhibition values, an average background value was obtained from the two wells containing the highest amount of HCV control inhibitor at the end of the assay period. These numbers were similar to those obtained from naïve Huh-7 cells. The background numbers were then subtracted from the average signal obtained from the control wells and this number was used as 100% activity. The individual signals in each of the compound test wells were then divided by the averaged control values after background subtraction and multiplied by 100% to determine percent activity. […] The two numbers generated for the compound plate, percent cytoxicity and percent activity, were used to determine compounds of interest for further analysis.

HCV NS5B = target: T1, HCV NS5B (Hepatitis C virus genotype 1b, UniProt Q9WMX2); experiment: HCV NS5B RdRp enzyme assay (standard or modified); type: biochemical; settings: HCV RdRp genotype 1b enzyme; not stated whether standard or modified assay
T1 construct: The cDNA encoding the NS5B protein of HCV, genotype 1b; made in house; host or cells: E. coli BL21(DE3)
Procedure: HCV NS5B RdRp cloning, expression, and purification. The cDNA encoding the NS5B protein of HCV, genotype 1b, was cloned into the pET21a expression vector. The protein was expressed with an 18 amino acid C-terminal truncation to enhance the solubility. The E. coli competent cell line BL21(DE3) was used for expression of the protein. Cultures were grown at 37 °C for ~ 4 hours until the cultures reached an optical density of 2.0 at 600 nm. The cultures were cooled to 20 °C and induced with 1 mM IPTG. Fresh ampicillin was added to a final concentration of 50 µg/ml and the cells were grown overnight at 20 °C.
The lysis buffer consisted of 20 mM Tris-HCl, pH 7.4, 500 mM NaCl, 0.5% triton X-100, 1 mM DTT, 1 mM EDTA, 20% glycerol, 0.5 mg/ml lysozyme, 10 mM MgCl2, 15 ug/ml deoxyribonuclease I, and Complete TM protease inhibitor tablets (Roche). After addition of the lysis buffer, frozen cell pellets were resuspended using a tissue homogenizer. To reduce the viscosity of the sample, aliquots of the lysate were sonicated on ice using a microtip attached to a Branson sonicator. The sonicated lysate was centrifuged at 100,000 x g for Ihr at 4 °C and filtered through a 0.2 µm filter unit (Coming).
The protein was purified using two sequential chromatography steps: Heparin sepharose CL-6B and polyU sepharose 4B (Pharmacia). The chromatography buffers were identical to the lysis buffer but contained no lysozyme, deoxyribonuclease I, MgCl2 or protease inhibitor and the NaCl concentration of the buffer was adjusted according to the requirements for charging the protein onto the column. Each column was eluted with a NaCl gradient which varied in length from 5-50 column volumes depending on the column type. […] The enzyme was aliquoted and stored at -80 °C.
Standard HCV NSSB RdRp enzyme assay. HCV RdRp genotype 1b assays were run in a final volume of 60 µl in 96 well plates (Coming 3600). The assay buffer is composed of 20 mM Hepes, pH 7.5, 2.5 mM KCl, 2.5 mM MgCl2, 1 mM DTT, 1.6 U RNAse inhibitor (Promega N2515), 0.01 mg/ml BSA (Sigma B6917), and 2 % glycerol. All compounds were serially diluted (3-fold) in DMSO and diluted further in water such that the final concentration of DMSO in the assay was 2%. HCV RdRp genotype 1b enzyme was used at a final concentration of 28 nM. A polyA template was used at 6 nM, and a biotinylated oligo-dT12 primer was used at 180 nM final concentration. Template was obtained commercially (Amersham 27-4110). Biotinylated primer was prepared by Sigma Genosys. 3H-UTP was used at 0.6 µCi (0.29 µM total UTP). Reactions were initiated by the addition of enzyme, incubated at 30 °C for 60 min, and stopped by adding 25 µl of 50 mM EDTA containing SPA beads (4 µg/µl, Amersham RPNQ 0007). Plates were read on a Packard Top Count NXT after >1hr incubation at room temperature.
Modified HCV NS5B RdRp enzyme assay. A modified enzyme assay was performed essentially as described for the standard enzyme assay except for the following: The biotinylated oligo dT12 primer was precaptured on streptavidin-coated SPA beads by mixing primer and beads in assay buffer and incubating at room temperature for one hour. Unbound primer was removed after centrifugation. The primer-bound beads were resuspended in 20 mM Hepes buffer, pH 7.5 and used in the assay at final concentrations of 20 nM primer and 0.67 µg/µl beads. Order of addition in the assay: enzyme (1.75 nM) was added to diluted compound followed by the addition of a mixture of template (0.36 nM), 3H-UTP (0.6 µCi, 0.29 µM), and primer-bound beads, to initiate the reaction; concentrations given are final. Reactions were allowed to proceed for 4 hours at 30° C.
IC50 values for compounds were determined using seven different [I].

[1] = HCV replicon cells, 50% reduction in FRET or luciferase activity

T1 sequence (Q9WMX2 2420-2992): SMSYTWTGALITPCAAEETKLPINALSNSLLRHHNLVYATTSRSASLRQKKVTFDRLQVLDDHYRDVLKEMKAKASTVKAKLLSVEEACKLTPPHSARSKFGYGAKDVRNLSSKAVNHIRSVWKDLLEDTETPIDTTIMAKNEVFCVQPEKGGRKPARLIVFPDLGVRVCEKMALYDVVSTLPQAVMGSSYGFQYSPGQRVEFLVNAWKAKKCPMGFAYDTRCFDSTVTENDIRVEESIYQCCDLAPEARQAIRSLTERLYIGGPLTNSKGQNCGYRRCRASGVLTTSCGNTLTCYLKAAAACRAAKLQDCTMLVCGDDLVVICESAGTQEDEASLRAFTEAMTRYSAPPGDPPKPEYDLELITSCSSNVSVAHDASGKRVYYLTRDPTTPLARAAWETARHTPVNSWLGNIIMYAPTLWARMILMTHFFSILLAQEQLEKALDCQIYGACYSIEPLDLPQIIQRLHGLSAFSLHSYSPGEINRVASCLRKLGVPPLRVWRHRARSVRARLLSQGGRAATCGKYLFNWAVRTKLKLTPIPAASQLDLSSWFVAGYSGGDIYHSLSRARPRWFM

SMILES	EC50 (HCV replicon; Hepatitis C virus)	IC50 (HCV NS5B)	EC50 (HCV replicon; [1])
CCN(CC)C(=O)N1CC2CCC(C1)N2C(=O)C12CC1c1cc(OC)ccc1-c1c(C3CCCCC3)c3ccc(C(=O)NS(=O)(=O)C4CC4)cc3n1C2 (stereo not shown)	1 to 500 nM	–	–
CCN(CC)C(=O)N1CC2CCC(C1)N2C(=O)C12CC1c1cc(OC)ccc1-c1c(C3CCCCC3)c3ccc(C(=O)NS(=O)(=O)N4CCN(C)CC4)cc3n1C2 (stereo not shown)	1 to 500 nM	–	–
COc1ccc2c(c1)[C@H]1C[C@@]1(C(=O)N1C3CCC1CN(C)C3)Cn1c-2c(C2CCCCC2)c2ccc(C(=O)NS(=O)(=O)C(C)C)cc21	1 to 500 nM	–	–
COc1ccc2c(c1)C1CC1(C(=O)N1C3CCC1CN(C)C3)Cn1c-2c(C2CCCCC2)c2ccc(C(=O)NS(=O)(=O)C(C)C)cc21 (stereo not shown)	1 to 500 nM	–	–
COc1ccc2c(c1)C1CC1(C(=O)N1C3CCC1CN(C)C3)Cn1c-2c(C2CCCCC2)c2ccc(C(=O)NS(=O)(=O)C3CCCC3)cc21 (stereo not shown)	1 to 500 nM	1 to 500 nM	–
COc1ccc2c(c1)C1CC1(C(=O)N1C3CCC1CN(C)C3)Cn1c-2c(C2CCCCC2)c2ccc(C(=O)NS(=O)(=O)C3CCCCC3)cc21 (stereo not shown)	1 to 500 nM	–	–
COc1ccc2c(c1)C1CC1(C(=O)N1C3CCC1CN(C)C3)Cn1c-2c(C2CCCCC2)c2ccc(C(=O)NS(=O)(=O)CC(C)C)cc21 (stereo not shown)	1 to 500 nM	1 to 500 nM	–
CCCS(=O)(=O)NC(=O)c1ccc2c(C3CCCCC3)c3n(c2c1)CC1(C(=O)N2C4CCC2CN(C)C4)CC1c1cc(OC)ccc1-3 (stereo not shown)	1 to 500 nM	1 to 500 nM	–
COc1ccc2c(c1)C1CC1(C(=O)N1C3CCC1CN(C)C3)Cn1c-2c(C2CCCCC2)c2ccc(C(=O)NS(=O)(=O)C(C)(C)C)cc21 (stereo not shown)	1 to 500 nM	1 to 500 nM	–
CCCCS(=O)(=O)NC(=O)c1ccc2c(C3CCCCC3)c3n(c2c1)CC1(C(=O)N2C4CCC2CN(C)C4)CC1c1cc(OC)ccc1-3 (stereo not shown)	1 to 500 nM	–	–
CN1CC2CCC(C1)N2C(=O)C12CC1c1ccccc1-c1c(C3CCCCC3)c3ccc(C(=O)NS(=O)(=O)N(C)C)cc3n1C2 (stereo not shown)	1 to 500 nM	1 to 500 nM	–
CC(C)S(=O)(=O)NC(=O)c1ccc2c(C3CCCCC3)c3n(c2c1)CC1(C(=O)N2C4CCC2CN(C)C4)CC1c1ccccc1-3 (stereo not shown)	1 to 500 nM	1 to 500 nM	–
CCC(CC)S(=O)(=O)NC(=O)c1ccc2c(C3CCCCC3)c3n(c2c1)CC1(C(=O)N2C4CCC2CN(C)C4)CC1c1cc(OC)ccc1-3 (stereo not shown)	> 110 nM	–	–
COc1ccc2c(c1)[C@@H]1C[C@]1(C(=O)N1C3CCC1CN(C)C3)Cn1c-2c(C2CCCCC2)c2ccc(C(=O)NS(=O)(=O)CC(C)C)cc21	1 to 500 nM	1 to 500 nM	–
COc1ccc2c(c1)C1CC1(C(=O)N1C3CCC1CN(C)C3)Cn1c-2c(C2CCCCC2)c2ccc(C(=O)NS(=O)(=O)CC(F)F)cc21 (stereo not shown)	1 to 500 nM	–	–
COc1ccc2c(c1)C1CC1(C(=O)N1C3CCC1CN(C)C3)Cn1c-2c(C2CCCCC2)c2ccc(C(=O)NS(=O)(=O)C(F)(F)F)cc21 (stereo not shown)	1 to 500 nM	–	–
COc1ccc2c(c1)C1CC1(C(=O)N1C3CCC1CN(C)C3)Cn1c-2c(C2CCCCC2)c2ccc(C(=O)NS(=O)(=O)CCC(F)(F)F)cc21 (stereo not shown)	1 to 500 nM	1 to 500 nM	–
COc1ccc2c(c1)C1CC1(C(=O)N1C3CCC1CN(C)C3)Cn1c-2c(C2CCCCC2)c2ccc(C(=O)NS(=O)(=O)CC(F)(F)F)cc21 (stereo not shown)	1 to 500 nM	1 to 500 nM	–
COc1ccc2c(c1)C1CC1(C(=O)N1C3CCC1CN(C)C3)Cn1c-2c(C2CCCCC2)c2ccc(C(=O)NS(=O)(=O)C3CCC3)cc21 (stereo not shown) [drawing 40]	–	1 to 500 nM	1 to 500 nM
CCC(C)S(=O)(=O)NC(=O)c1ccc2c(C3CCCCC3)c3n(c2c1)CC1(C(=O)N2C4CCC2CN(C)C4)CC1c1cc(OC)ccc1-3 (stereo not shown) [drawing 45]	1 to 500 nM	1 to 500 nM	–
COc1ccc2c(c1)C1CC1(C(=O)N1C3CCC1CN(C)C3)Cn1c-2c(C2CCCCC2)c2ccc(C(=O)NS(=O)(=O)C3CCC3)cc21 (stereo not shown) [drawing 51]	1 to 500 nM	–	–
CCC(C)S(=O)(=O)NC(=O)c1ccc2c(C3CCCCC3)c3n(c2c1)CC1(C(=O)N2C4CCC2CN(C)C4)CC1c1cc(OC)ccc1-3 (stereo not shown) [drawing 52]	–	1 to 500 nM	1 to 500 nM
